# Where two headings read alike, the source gives them in different places.
# Test system: cellobiose dehydrogenase
# Type: biochemical, Coriolus hirsutus
# [1] = 1 mM, incubation at 4° C. overnight
SMILES,Relative activity [1],further results
[Cl][Al]([Cl])[Cl] [AlCl2],23%,
[Ba+2].[Cl-].[Cl-] [BaCl2],71%,
[Ca+2].[Cl-].[Cl-] [CaCl2],65%,
[Cl-].[Cl-].[Co+2] [CoCl2],,Relative activity (1 mM): 53%
[Cl][Cu][Cl] [CuCl2],53%,
O=S(=O)([O-])[O-].[Cu+2] [CuSO4],82%,
O=C(O)CN(CCN(CC(=O)O)CC(=O)O)CC(=O)O [EDTA],,Relative activity: 45%; inhibition of the enzyme: weakly inhibited
O=S(=O)([O-])[O-].[Fe+2] [FeSO4],0%,
[Cl][Hg][Cl] [HgCl2],0%,inhibition of the enzyme (1 mM): strongly inhibited
[Cl-].[Li+] [LiCl2],45%,
[Cl-].[Cl-].[Mg+2] [MgCl2],64%,
[Cl][Mn][Cl] [MnCl2],35%,
"[N-]=[N+]=[N-].[Na+] [NaN3, sodium azide]",,Relative activity: 46%; inhibition of the enzyme: weakly inhibited
[Cl][Ni][Cl] [NiCl2],60%,
CCCCCCCCCCCCOS(=O)(=O)[O-].[Na+] [SDS],0%,inhibition of the enzyme (1 mM): strongly inhibited
[Cl-].[Cl-].[Zn+2] [ZnCl2],32%,
O=S(=O)([O-])[O-].[Zn+2] [ZnSO4],72%,

# — patent US20050181485A1, “Cellulose digesting enzyme gene and utilization of the gene” (priority 2002, published 2005)
